Assays:
P2X purinoceptor 7 [1] = molecular target: T1, P2X purinoceptor 7 (Homo sapiens, UniProt Q99572); experiment: Antagonist activity at human P2X7 receptor expressed in HEK293 cells assessed as inhibition of BzATP-induced EtBr uptake measured after 2 hrs by fluorescence analysis; assay type: cell-based
T1 sequence (Q99572 whole entry): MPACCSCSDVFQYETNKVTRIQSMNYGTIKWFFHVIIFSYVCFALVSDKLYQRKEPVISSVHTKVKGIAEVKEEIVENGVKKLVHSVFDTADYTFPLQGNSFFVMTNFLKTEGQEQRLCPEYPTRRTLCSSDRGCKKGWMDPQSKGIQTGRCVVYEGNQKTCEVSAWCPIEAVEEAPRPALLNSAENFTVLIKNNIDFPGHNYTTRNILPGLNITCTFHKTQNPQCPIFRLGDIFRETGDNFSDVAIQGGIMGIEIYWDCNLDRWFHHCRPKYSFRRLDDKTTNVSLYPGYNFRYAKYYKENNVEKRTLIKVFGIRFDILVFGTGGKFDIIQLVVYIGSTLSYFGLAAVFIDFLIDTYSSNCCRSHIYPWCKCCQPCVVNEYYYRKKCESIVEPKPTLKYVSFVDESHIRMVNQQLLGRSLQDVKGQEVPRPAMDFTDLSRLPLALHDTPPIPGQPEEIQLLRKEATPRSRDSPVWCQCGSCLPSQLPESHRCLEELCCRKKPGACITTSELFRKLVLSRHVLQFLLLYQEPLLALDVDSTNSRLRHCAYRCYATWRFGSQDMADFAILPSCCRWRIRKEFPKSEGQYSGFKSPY

P2X purinoceptor 7 [2] = molecular target: T1, P2X purinoceptor 7; experiment: Antagonist activity at human P2X7 receptor in LPS/IFN-gamma-differentiated human THP-1 cells assessed as suppression of BzATP-stimulated IL-1beta release per-incubated for 30 mins before BzATP addition and measured after 30 mins by ELISA; assay type: cell-based

Row | Structure (SMILES) | IC50 (P2X purinoceptor 7 [1]) [µM] | IC50 (P2X purinoceptor 7 [2]) [µM]
1 | O=C(c1ccc(Cl)c(C(F)(F)F)c1)N1CCC(n2cncc2-c2ccc(OS(=O)(=O)c3ccccc3)cc2)CC1 | 0.702 | 
2 | CN(C)c1ccc(C(=O)N2CCC(c3nc4cc(OS(=O)(=O)c5cccc6cnccc56)ccc4[nH]3)CC2)cc1 | 0.041 | 0.121
3 | COc1ccc(C(=O)N2CCC(n3cncc3-c3ccc(OS(=O)(=O)c4cccc(C#N)c4)cc3)CC2)cc1 | 0.312 | 
4 | O=C(c1ccc(Cl)c(C(F)(F)F)c1)N1CCC(n2cncc2-c2ccc(OS(=O)(=O)c3cccc([N+](=O)[O-])c3)cc2)CC1 | 0.249 | 
5 | CNC(=O)c1cccc(S(=O)(=O)Oc2ccc(-c3cncn3C3CCN(C(=O)c4ccc(S(C)(=O)=O)cc4)CC3)cc2)c1 | 0.202 | 
6 | O=C(c1ccc(Cl)c(C(F)(F)F)c1)N1CCC(n2cncc2-c2ccc(OS(=O)(=O)c3cccc(Br)c3)cc2)CC1 | 0.896 | 
7 | CN(C)c1cccc(C(=O)N2CCC(n3cncc3-c3ccc(OS(=O)(=O)c4cccc5cnccc45)cc3)CC2)c1 | 0.155 | 
8 | CNC(=O)c1cccc(S(=O)(=O)Oc2ccc(-c3cncn3C3CCN(C(=O)c4ccc(OC)cc4)CC3)cc2)c1 | 0.159 | 
9 | O=C(Oc1ccc(-c2cncn2C2CCN(C(=O)c3ccc(Cl)c(C(F)(F)F)c3)CC2)cc1)c1ccccc1 | > 10 | 
10 | CNC(=O)c1cccc(S(=O)(=O)Oc2ccc(-c3cncn3C3CCN(C(=O)c4ccc(Cl)c(C(F)(F)F)c4)CC3)cc2)c1 | 0.112 | 0.00176
11 | N#Cc1cccc(S(=O)(=O)Oc2ccc(-c3cncn3C3CCN(C(=O)c4ccc([N+](=O)[O-])cc4)CC3)cc2)c1 | 0.045 | 0.013
12 | Nc1cccc(S(=O)(=O)Oc2ccc(-c3cncn3C3CCN(C(=O)c4ccc(Cl)c(C(F)(F)F)c4)CC3)cc2)c1 | 0.565 | 
13 | O=C(Oc1ccc(-c2cncn2C2CCN(C(=O)c3ccc(Cl)c(C(F)(F)F)c3)CC2)cc1)c1cccs1 | > 10 | 
14 | N#Cc1cccc(S(=O)(=O)Oc2ccc(-c3cncn3C3CCN(C(=O)c4ccc(Cl)c(C(F)(F)F)c4)CC3)cc2)c1 | 0.073 | 0.00428
15 | O=C(NC1CC1)c1cccc(S(=O)(=O)Oc2ccc(-c3cncn3C3CCN(C(=O)c4ccc([N+](=O)[O-])cc4)CC3)cc2)c1 | 0.152 | 
16 | CS(=O)(=O)c1ccc(C(=O)N2CCC(n3cncc3-c3ccc(OS(=O)(=O)c4cccc(C#N)c4)cc3)CC2)cc1 | 0.143 | 
17 | CS(=O)(=O)Oc1ccc(-c2cncn2C2CCN(C(=O)c3ccc(Cl)c(C(F)(F)F)c3)CC2)cc1 | 1.57 | 
18 | CC(=O)Oc1ccc(-c2cncn2C2CCN(C(=O)c3ccc(Cl)c(C(F)(F)F)c3)CC2)cc1 | > 10 | 
19 | CN(C)c1ccc(C(=O)N2CCC(n3cncc3-c3ccc(OS(=O)(=O)c4cccc(C#N)c4)cc3)CC2)cc1 | 0.032 | 0.01

Results, then the compound that gave them:

Row | IC50 (P2X purinoceptor 7 [1]) [µM] | IC50 (P2X purinoceptor 7 [2]) [µM] | Structure (SMILES)
20 | 0.062 | 0.026 | CNC(=O)c1cccc(S(=O)(=O)Oc2ccc(-c3cncn3C3CCN(C(=O)c4ccc([N+](=O)[O-])cc4)CC3)cc2)c1
21 | 0.109 | 0.0047 | CC(C)(O)c1ccc(C(=O)N2CCC(n3cncc3-c3ccc(OS(=O)(=O)c4cccc5cnccc45)cc3)CC2)cc1
22 | 0.202 |  | CCN(CC)C(=O)c1cccc(S(=O)(=O)Oc2ccc(-c3cncn3C3CCN(C(=O)c4ccc(Cl)c(C(F)(F)F)c4)CC3)cc2)c1
23 | 0.088 | 0.058 | O=C(NC1CC1)c1cccc(S(=O)(=O)Oc2ccc(-c3cncn3C3CCN(C(=O)c4ccc(Cl)c(C(F)(F)F)c4)CC3)cc2)c1
24 | 0.04 | 0.018 | O=C(c1ccc(Cl)c(C(F)(F)F)c1)N1CCN(c2cc(=O)[nH]c(=O)n2Cc2ccc(OS(=O)(=O)c3cccc4cnccc34)cc2)CC1
25 | 0.025 | 0.00032 | CS(=O)(=O)c1ccc(C(=O)N2CCC(n3cncc3-c3ccc(OS(=O)(=O)c4cccc5cnccc45)cc3)CC2)cc1
26 | 1.44 |  | CCN(CC)c1ccc(C(=O)N2CCC(n3cncc3-c3ccc(OS(=O)(=O)c4cccc5cnccc45)cc3)CC2)cc1
27 | 0.269 |  | N#Cc1ccc(C(=O)N2CCC(n3cncc3-c3ccc(OS(=O)(=O)c4cccc5cnccc45)cc3)CC2)cc1
28 | 0.045 | 0.022 | O=C(c1ccc(Cl)c(C(F)(F)F)c1)N1CCC(n2cncc2-c2ccc(OS(=O)(=O)c3cccc4cnccc34)cc2)CC1
29 | 0.044 | 0.05 | CS(=O)(=O)c1ccc(C(=O)N2CCN(c3cc(=O)[nH]c(=O)n3Cc3ccc(OS(=O)(=O)c4cccc5cnccc45)cc3)CC2)cc1
30 | 0.259 |  | COc1ccc(C(=O)N2CCC(n3cncc3-c3ccc(OS(=O)(=O)c4cccc5cnccc45)cc3)CC2)cc1OC
31 | 0.43 | 0.552 | O=C(c1ccc(Cl)c(C(F)(F)F)c1)N1CCC(n2ccc3cc(OS(=O)(=O)c4cccc5cnccc45)ccc32)CC1
32 | 0.055 | 0.037 | CC(C)c1ccc(C(=O)N2CCC(n3cncc3-c3ccc(OS(=O)(=O)c4cccc5cnccc45)cc3)CC2)cc1
33 | 0.077 | 0.064 | COc1ccc(C(=O)N2CCC(n3cncc3-c3ccc(OS(=O)(=O)c4cccc5cnccc45)cc3)CC2)cc1
34 | 0.031 | 0.21 | O=C(c1ccc(Cl)c(C(F)(F)F)c1)N1CCC(c2nc3cc(OS(=O)(=O)c4cccc5cnccc45)ccc3[nH]2)CC1
35 | 3.52 |  | O=C(c1ccc(Cl)c(C(F)(F)F)c1)N1CCC(n2cncc2-c2ccc(OS(=O)(=O)c3cccc4ccccc34)cc2)CC1
36 | 0.025 | 0.022 | CNC(=O)c1cccc(S(=O)(=O)Oc2ccc(-c3cncn3C3CCN(C(=O)c4ccc(N(C)C)cc4)CC3)cc2)c1
37 | 0.00149 | 0.00829 | O=C(c1ccc([N+](=O)[O-])cc1)N1CCC(n2cncc2-c2ccc(OS(=O)(=O)c3cccc4cnccc34)cc2)CC1
38 | 0.187 |  | O=C(c1ccc(Oc2ccccc2)cc1)N1CCC(n2cncc2-c2ccc(OS(=O)(=O)c3cccc4cnccc34)cc2)CC1
39 | > 10 |  | O=C(Oc1ccc(-c2cncn2C2CCN(C(=O)c3ccc(Cl)c(C(F)(F)F)c3)CC2)cc1)c1cccc2cnccc12
40 | 0.238 |  | O=C(c1ccc(Cl)c(C(F)(F)F)c1)N1CCC(n2cncc2-c2ccc(OS(=O)(=O)c3cccs3)cc2)CC1
41 | 0.027 | 0.032 | O=C(c1ccc([N+](=O)[O-])cc1)N1CCN(c2cc(=O)[nH]c(=O)n2Cc2ccc(OS(=O)(=O)c3cccc4cnccc34)cc2)CC1
42 | 0.4 |  | CS(=O)(=O)c1ccc(C(=O)N2CCC(n3cncc3-c3ccc(OS(=O)(=O)c4cccc(C(=O)NC5CC5)c4)cc3)CC2)cc1
43 | 0.013 | 0.017 | O=C(c1ccc([N+](=O)[O-])cc1)N1CCC(c2nc3cc(OS(=O)(=O)c4cccc5cnccc45)ccc3[nH]2)CC1
44 | 0.244 |  | COc1ccc(C(=O)N2CCC(n3cncc3-c3ccc(OS(=O)(=O)c4cccc(C(=O)NC5CC5)c4)cc3)CC2)cc1

Source: ChEMBL document CHEMBL4477234, “Potent Suppressive Effects of 1-Piperidinylimidazole Based Novel P2X7 Receptor Antagonists on Cancer Cell Migration and Invasion” (J Med Chem, 2016)
